From patent US20230114728A1 (Venatorx Pharmaceuticals, Inc., priority 2019, published 2023) come the findings set out here.

Common to all, as to type: cell-based
The subject of one assay is E. coli 901C. In words: Broth microdilution MIC in CAMHB. To be noted: Escherichia coli; E. coli 901C (hyper-permeable); MHB; read-out: Minimum Inhibitory Concentration, E. coli 901C. The essentials: (§1)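 Hyper-permeable or efflux-deficient strains serve to probe outer-membrane penetration. Growth inhibition is scored visually after 16-20 h at 37° C in CAMHB, starting from 2-8×10^5 CFU/mL.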

In a further assay the test system is A. baumannii ATCC 19606. In words: Broth microdilution MIC in CAMHB. To be noted: Acinetobacter baumannii, ATCC19606; MHB; read-out: Minimum Inhibitory Concentration, A. baumannii ATCC 19606. In outline:
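MIC, read by eye, is the lowest compound concentration giving no bacterial growth after 16-20 h at 37° C. Test compounds are serially diluted 2-fold in CAMHB and seeded with 2-8×10^5 CFU/mL of bacteria taken from a 3-5 h shaking culture, following CLSI methods.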

The test system of assay [1] is K. pneumoniae SI-117 producing VIM-1. The assay can be described thus: Broth microdilution MIC in CAMHB. To be noted: Klebsiella pneumoniae, read-out: Minimum Inhibitory Concentration, K. pneumoniae SI-117. The essentials: as §1
On the technique in general: In broth dilution the organism is exposed to a series of concentrations in liquid medium.

A further assay has as its system P. aeruginosa ATCC 35151. The assay can be described thus: Broth microdilution MIC in CAMHB. To be noted: Pseudomonas aeruginosa, ATCC35151; MHB; hyper-permeable strain; read-out: Minimum Inhibitory Concentration, P. aeruginosa ATCC 35151. In outline:
as §1

Another assay deals with N. gonorrhoeae WHO K. The assay can be described thus: Liquid broth MIC in Fastidious broth. To be noted: Neisseria gonorrhoeae, read-out: Minimum Inhibitory Concentration, N. gonorrhoeae WHO K. The essentials:
(§2)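 Mosaic PBP2 producers; colonies from 24 h chocolate agar, saline suspension, OD600. Fastidious broth, 2-fold dilutions, 5×10^5 CFU/mL. ~24 h, 36 °C, 5% CO2; visual MIC, <10% growth cutoff.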

The next assay concerns N. gonorrhoeae WHO Z. In words: Liquid broth MIC in Fastidious broth. To be noted: Neisseria gonorrhoeae, read-out: Minimum Inhibitory Concentration, N. gonorrhoeae WHO Z. The essentials:
as §2

The next assay deals with N. gonorrhoeae WHO G. The assay can be described thus: Liquid broth MIC in Fastidious broth. To be noted: Neisseria gonorrhoeae; N. gonorrhoeae strain WHO G; Fastidious broth; read-out: Minimum Inhibitory Concentration, N. gonorrhoeae WHO G. In outline: (§3)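 Colonies were swabbed from chocolate agar after 24 h growth and standardised by optical density at 600 nm. Compounds were serially diluted twofold in Fastidious broth, and bacteria added to give 5×10^5 CFU/mL. After about 24 h at 36 °C in 5% CO2, the lowest concentration allowing under 10% growth was taken as MIC.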

The next assay deals with N. gonorrhoeae WHO L. In words: Liquid broth MIC in Fastidious broth. To be noted: Neisseria gonorrhoeae; N. gonorrhoeae strain WHO L; Fastidious broth; read-out: Minimum Inhibitory Concentration, N. gonorrhoeae WHO L. In outline: as §3
The subject of another assay is N. gonorrhoeae WHO Q. The assay can be described thus: Liquid broth MIC in Fastidious broth. To be noted: Neisseria gonorrhoeae, read-out: Minimum Inhibitory Concentration, N. gonorrhoeae WHO Q. In outline: as §2
A further assay relates to N. gonorrhoeae H041. The assay can be described thus: Liquid broth MIC in Fastidious broth. To be noted: Neisseria gonorrhoeae, H041, read-out: Minimum Inhibitory Concentration, N. gonorrhoeae H041. The essentials:
as §2

Assay [2] has as its system N. gonorrhoeae ATCC 49226. The assay can be described thus: Liquid broth MIC in Fastidious broth. To be noted: Neisseria gonorrhoeae, ATCC49226; N. gonorrhoeae strain ATCC 49226; Fastidious broth; read-out: Minimum Inhibitory Concentration, N. gonorrhoeae ATCC 49226. In outline: as §3
A further assay relates to N. gonorrhoeae FA1090. The assay can be described thus: Liquid broth MIC in Fastidious broth. To be noted: Neisseria gonorrhoeae; N. gonorrhoeae strain FA1090; Fastidious broth; read-out: Minimum Inhibitory Concentration, N. gonorrhoeae FA1090. The essentials:
as §3

Molecules are shown by their SMILES. Values after ≈ are worked out from the molar mass of the structure shown.

With `O=C(O)c1cccc2c1OB(O)[C@@H](NC(=O)C(NC(=O)N1CCN(CC3CNC3)C(=O)C1=O)c1c(F)cc(O)cc1F)C2` (stereo partly drawn) [Example 193, (3R)-3-(2-(4-(azetidin-3-ylmethyl)-2,3-dioxopiperazine-1-carboxamido)-2-(2,6-difluoro-4-hydroxyphenyl)acetamido)-2-hydroxy-3,4-dihydro-2H-benzo[e][1,2]oxaborinine-8-carboxylic acid], the MIC in the assay on E. coli 901C is 0.5 to 1 µg/mL (≈ 0.831 to 1.66 µM); with A. baumannii ATCC 19606 it was greater than 128 µg/mL; in assay [1], 32 to 64 µg/mL (≈ 53.2 to 106 µM); in the assay on P. aeruginosa ATCC 35151, 0.5 to 1 µg/mL (≈ 0.831 to 1.66 µM); in the assay with N. gonorrhoeae WHO K, greater than 64 µg/mL; in the assay on N. gonorrhoeae WHO Z it was greater than 64 µg/mL. Further, the MIC in the assay on N. gonorrhoeae WHO G was 16 to 32 µg/mL (≈ 26.6 to 53.2 µM); in the assay on N. gonorrhoeae WHO L, greater than 64 µg/mL; in the assay with N. gonorrhoeae WHO Q, greater than 64 µg/mL; with N. gonorrhoeae H041 it was greater than 64 µg/mL; in assay [2] it was greater than 64 µg/mL; in the assay with N. gonorrhoeae FA1090 it was 1 to 2 µg/mL (≈ 1.66 to 3.33 µM).
In the case of `CCN1CCN(C(=O)NC(C(=O)N[C@H]2Cc3cccc(C(=O)O)c3OB2O)c2ccc(C(=O)O)c(O)c2)C(=O)C1=O` (stereo partly drawn) [Example 196, (3R)-3-(2-(4-carboxy-3-hydroxyphenyl)-2-(4-ethyl-2,3-dioxopiperazine-1-carboxamido)acetamido)-2-hydroxy-3,4-dihydro-2H-benzo[e][1,2]oxaborinine-8-carboxylic acid], the MIC was less than 0.25 µg/mL in the assay with E. coli 901C; greater than 128 µg/mL in the assay on A. baumannii ATCC 19606; 32 to 64 µg/mL (≈ 56.3 to 113 µM) in [1]; less than 0.25 µg/mL in the assay on P. aeruginosa ATCC 35151; 4 to 8 µg/mL (≈ 7.04 to 14.1 µM) in the assay with N. gonorrhoeae WHO K; 4 to 8 µg/mL (≈ 7.04 to 14.1 µM) in the assay on N. gonorrhoeae WHO Z. Besides, the MIC in the assay on N. gonorrhoeae WHO G was in the range of 1 to 2 µg/mL (≈ 1.76 to 3.52 µM); in the assay with N. gonorrhoeae WHO L, 16 to 32 µg/mL (≈ 28.2 to 56.3 µM); with N. gonorrhoeae WHO Q it was 4 to 8 µg/mL (≈ 7.04 to 14.1 µM); in the assay on N. gonorrhoeae H041 it was 16 to 32 µg/mL (≈ 28.2 to 56.3 µM); in assay [2], 4 to 8 µg/mL (≈ 7.04 to 14.1 µM); in the assay with N. gonorrhoeae FA1090, 0.25 to 0.5 µg/mL (≈ 0.44 to 0.88 µM).
As to `CCN1CCN(C(=O)NC(C(=O)N[C@H]2Cc3cccc(C(=O)O)c3OB2O)c2cc(NS(N)(=O)=O)ccc2F)C(=O)C1=O` (stereo partly drawn) [Example 197, (3R)-3-(2-(4-ethyl-2,3-dioxopiperazine-1-carboxamido)-2-(2-fluoro-5-(sulfamoylamino)phenyl)acetamido)-2-hydroxy-3,4-dihydro-2H-benzo[e][1,2]oxaborinine-8-carboxylic acid], the MIC was less than 0.25 µg/mL with E. coli 901C; 32 to 64 µg/mL (≈ 51.6 to 103 µM) in the assay on A. baumannii ATCC 19606; 32 to 64 µg/mL (≈ 51.6 to 103 µM) in [1]; less than 0.25 µg/mL in the assay with P. aeruginosa ATCC 35151; 16 to 32 µg/mL (≈ 25.8 to 51.6 µM) with N. gonorrhoeae WHO K; 16 to 32 µg/mL (≈ 25.8 to 51.6 µM) with N. gonorrhoeae WHO Z. Besides, the MIC in the assay with N. gonorrhoeae WHO G was 4 to 8 µg/mL (≈ 6.45 to 12.9 µM); in the assay on N. gonorrhoeae WHO L it was greater than 64 µg/mL; in the assay on N. gonorrhoeae WHO Q, 16 to 32 µg/mL (≈ 25.8 to 51.6 µM); with N. gonorrhoeae H041, 16 to 32 µg/mL (≈ 25.8 to 51.6 µM); in [2] it was 16 to 32 µg/mL (≈ 25.8 to 51.6 µM); in the assay on N. gonorrhoeae FA1090 it was 0.25 to 0.5 µg/mL (≈ 0.403 to 0.806 µM).
For `NS(=O)(=O)Nc1ccc(F)c(C(NC(=O)N2CCN(CCF)C(=O)C2=O)C(=O)N[C@H]2Cc3cccc(C(=O)O)c3OB2O)c1` (stereo partly drawn) [Example 198, (3R)-3-(2-(2-fluoro-5-(sulfamoylamino)phenyl)-2-(4-(2-fluoroethyl)-2,3-dioxopiperazine-1-carboxamido)acetamido)-2-hydroxy-3,4-dihydro-2H-benzo[e][1,2]oxaborinine-8-carboxylic acid], the MIC in the assay with E. coli 901C is less than 0.25 µg/mL; with A. baumannii ATCC 19606, greater than 128 µg/mL; in [1], 32 to 64 µg/mL (≈ 50.1 to 100 µM); with P. aeruginosa ATCC 35151, 0.5 to 1 µg/mL (≈ 0.783 to 1.57 µM); in the assay on N. gonorrhoeae WHO K it was 16 to 32 µg/mL (≈ 25.1 to 50.1 µM); in the assay on N. gonorrhoeae WHO Z it was 16 to 32 µg/mL (≈ 25.1 to 50.1 µM). Further, the MIC in the assay with N. gonorrhoeae WHO G is 4 to 8 µg/mL (≈ 6.27 to 12.5 µM); with N. gonorrhoeae WHO L, greater than 64 µg/mL; in the assay on N. gonorrhoeae WHO Q, 16 to 32 µg/mL (≈ 25.1 to 50.1 µM); in the assay with N. gonorrhoeae H041, 16 to 32 µg/mL (≈ 25.1 to 50.1 µM); in assay [2] it was 16 to 32 µg/mL (≈ 25.1 to 50.1 µM); in the assay with N. gonorrhoeae FA1090 it was 0.25 to 0.5 µg/mL (≈ 0.392 to 0.783 µM).
